From the supplement of paper PMC10307832

What was measured:
Assay in all cases: relative viability (nuclei count vs DMSO), 5 days (fraction); higher = more cells survive
NCI-H3122 = test system: NCI-H3122
Outline: (§1)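 After 5 days of treatment, lung cancer cells in 1536-well plates were fixed and stained in a single step (final 0.05% Triton X-100, 1% formaldehyde, 1 ug/ml Hoechst) and their nuclei counted on 4× images. Treatment had been applied by pin tool the day after seeding as one drug alone or as a fixed anchor-drug dose with five library-drug doses (not always all listed) in √10 steps. Relative viability is the nuclei count of treated wells divided by that of vehicle wells, and values are medians of duplicate plates.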

NCI-H23 = test system: NCI-H23
Outline: as §1

NCI-H1975 = test system: NCI-H1975
Outline: as §1

NCI-H1734 = test system: NCI-H1734
Outline: as §1

LK-2 = test system: LK-2
Outline: as §1

NCI-H1651 = test system: NCI-H1651
Outline: as §1

ChaGo-K-1 = test system: ChaGo-K-1
Outline: as §1

A-427 = test system: A-427
Outline: as §1

NCI-H460 = test system: NCI-H460
Outline: as §1

LU99A = test system: LU99A
Outline: as §1

COR-L23 = test system: COR-L23
Outline: as §1

NCI-H2342 = test system: NCI-H2342
Outline: as §1

HARA = test system: HARA
Outline: as §1

NCI-H1792 = test system: NCI-H1792
Outline: as §1

SW 1573 = test system: SW 1573
Outline: as §1

LCLC-97TM1 = test system: LCLC-97TM1
Outline: as §1

SK-MES-1 = test system: SK-MES-1
Outline: as §1

NCI-H2126 = test system: NCI-H2126
Outline: as §1

NCI-H661 = test system: NCI-H661
Outline: as §1

ABC-1 = test system: ABC-1
Outline: as §1

LOU-NH91 = test system: LOU-NH91
Outline: as §1

NCI-H1395 = test system: NCI-H1395
Outline: as §1

NCI-H2405 = test system: NCI-H2405
Outline: as §1

NCI-H838 = test system: NCI-H838
Outline: as §1

NCI-H2023 = test system: NCI-H2023
Outline: as §1

Nc1cccc2c1CN(C1CCC(=O)NC1=O)C2=O (configuration not stated) [Lenalidomide] + CC(=O)c1c(C)c2cnc(Nc3ccc(N4CCNCC4)cn3)nc2n(C2CCCC2)c1=O [Palbociclib] (partner 0.5 µM)
relative viability (NCI-H3122; first compound 0.253 µM): 0.178 | relative viability (NCI-H3122; first compound 0.8 µM): 0.213 | relative viability (NCI-H3122; first compound 2.53 µM): 0.232 | relative viability (NCI-H3122; first compound 8 µM): 0.195 | relative viability (NCI-H23; first compound 0.253 µM): 0.534 | relative viability (NCI-H23; first compound 2.53 µM): 0.517 | relative viability (NCI-H23; first compound 8 µM): 0.442 | relative viability (NCI-H1975; first compound 0.253 µM): 0.591 | relative viability (NCI-H1975; first compound 0.8 µM): 0.312 | relative viability (NCI-H1975; first compound 2.53 µM): 0.711 | relative viability (NCI-H1975; first compound 8 µM): 0.399 | relative viability (NCI-H1734; first compound 0.253 µM): 0.348 | relative viability (NCI-H1734; first compound 0.8 µM): 0.392 | relative viability (NCI-H1734; first compound 2.53 µM): 0.364 | relative viability (NCI-H1734; first compound 8 µM): 0.291 | relative viability (LK-2; first compound 0.253 µM): 0.575 | relative viability (LK-2; first compound 0.8 µM): 0.734 | relative viability (LK-2; first compound 2.53 µM): 0.845 | relative viability (LK-2; first compound 8 µM): 0.649 | relative viability (NCI-H1651; first compound 0.253 µM): 0.504 | relative viability (NCI-H1651; first compound 0.8 µM): 0.485 | relative viability (NCI-H1651; first compound 2.53 µM): 0.526 | relative viability (NCI-H1651; first compound 8 µM): 0.489 | relative viability (ChaGo-K-1; first compound 0.253 µM): 0.946 | relative viability (ChaGo-K-1; first compound 0.8 µM): 0.978 | relative viability (ChaGo-K-1; first compound 2.53 µM): 1.01 | relative viability (ChaGo-K-1; first compound 8 µM): 0.971 | relative viability (A-427; first compound 0.253 µM): 0.529 | relative viability (A-427; first compound 0.8 µM): 0.49 | relative viability (A-427; first compound 2.53 µM): 0.548 | relative viability (A-427; first compound 8 µM): 0.529 | relative viability (NCI-H460; first compound 0.253 µM): 0.179 | relative viability (NCI-H460; first compound 0.8 µM): 0.0987 | relative viability (NCI-H460; first compound 2.53 µM): 0.197 | relative viability (NCI-H460; first compound 8 µM): 0.142 | relative viability (LU99A; first compound 0.253 µM): 0.409 | relative viability (LU99A; first compound 0.8 µM): 0.39 | relative viability (LU99A; first compound 2.53 µM): 0.361 | relative viability (LU99A; first compound 8 µM): 0.286 | relative viability (COR-L23; first compound 0.253 µM): 0.342 | relative viability (COR-L23; first compound 0.8 µM): 0.34 | relative viability (COR-L23; first compound 2.53 µM): 0.308 | relative viability (COR-L23; first compound 8 µM): 0.348 | relative viability (NCI-H2342; first compound 0.253 µM): 0.551 | relative viability (NCI-H2342; first compound 0.8 µM): 0.53 | relative viability (NCI-H2342; first compound 2.53 µM): 0.502 | relative viability (NCI-H2342; first compound 8 µM): 0.476 | relative viability (HARA; first compound 0.253 µM): 0.253 | relative viability (HARA; first compound 2.53 µM): 0.293 | relative viability (HARA; first compound 8 µM): 0.253 | relative viability (NCI-H1792; first compound 0.253 µM): 0.656 | relative viability (NCI-H1792; first compound 0.8 µM): 0.754 | relative viability (NCI-H1792; first compound 2.53 µM): 0.745 | relative viability (NCI-H1792; first compound 8 µM): 0.675 | relative viability (SW 1573; first compound 0.253 µM): 0.239 | relative viability (SW 1573; first compound 0.8 µM): 0.384 | relative viability (SW 1573; first compound 2.53 µM): 0.399 | relative viability (SW 1573; first compound 8 µM): 0.421 | relative viability (LCLC-97TM1; first compound 0.253 µM): 0.229 | relative viability (LCLC-97TM1; first compound 0.8 µM): 0.185 | relative viability (LCLC-97TM1; first compound 2.53 µM): 0.209 | relative viability (LCLC-97TM1; first compound 8 µM): 0.212 | relative viability (SK-MES-1; first compound 0.253 µM): 0.317 | relative viability (SK-MES-1; first compound 0.8 µM): 0.312 | relative viability (SK-MES-1; first compound 2.53 µM): 0.278 | relative viability (SK-MES-1; first compound 8 µM): 0.156 | relative viability (NCI-H2126; first compound 0.253 µM): 0.359 | relative viability (NCI-H2126; first compound 0.8 µM): 0.383 | relative viability (NCI-H2126; first compound 2.53 µM): 0.328 | relative viability (NCI-H2126; first compound 8 µM): 0.332 | relative viability (NCI-H661; first compound 0.253 µM): 0.386 | relative viability (NCI-H661; first compound 0.8 µM): 0.377 | relative viability (NCI-H661; first compound 2.53 µM): 0.348 | relative viability (NCI-H661; first compound 8 µM): 0.357 | relative viability (ABC-1; first compound 0.253 µM): 0.577 | relative viability (ABC-1; first compound 0.8 µM): 0.518 | relative viability (ABC-1; first compound 2.53 µM): 0.904 | relative viability (ABC-1; first compound 8 µM): 0.671 | relative viability (LOU-NH91; first compound 0.253 µM): 0.564 | relative viability (LOU-NH91; first compound 0.8 µM): 0.515 | relative viability (LOU-NH91; first compound 2.53 µM): 0.487 | relative viability (LOU-NH91; first compound 8 µM): 0.429 | relative viability (NCI-H1395; first compound 0.253 µM): 0.649 | relative viability (NCI-H1395; first compound 2.53 µM): 0.701 | relative viability (NCI-H1395; first compound 8 µM): 0.592 | relative viability (NCI-H2405; first compound 0.253 µM): 0.513 | relative viability (NCI-H2405; first compound 0.8 µM): 0.529 | relative viability (NCI-H2405; first compound 2.53 µM): 0.524 | relative viability (NCI-H2405; first compound 8 µM): 0.45 | relative viability (NCI-H838; first compound 0.253 µM): 0.172 | relative viability (NCI-H838; first compound 0.8 µM): 0.19 | relative viability (NCI-H838; first compound 2.53 µM): 0.256 | relative viability (NCI-H838; first compound 8 µM): 0.18 | relative viability (NCI-H2023; first compound 0.253 µM): 0.405 | relative viability (NCI-H2023; first compound 0.8 µM): 0.419 | relative viability (NCI-H2023; first compound 2.53 µM): 0.403 | relative viability (NCI-H2023; first compound 8 µM): 0.45
